Read-outs that look alike come from different tables or passages of the source.

In data set [1] the target is PI3Kγ (Homo sapiens, UniProt P48736). As to the kind of experiment: PI3K-gamma fluorescence polarization assay. To be noted: read-out: PI3Kγ Median IC50. Format: biochemical. (In general: Fluorescence polarisation rises when a labelled molecule tumbles more slowly, as on binding a larger partner.)
Data set [2] concerns the target mTOR (Homo sapiens, UniProt P42345). As to the kind of experiment: mTOR enzyme assay (DELFIA format, His6-S6K substrate). The format is biochemical.
Data set [3] has as its target PI3Kα (Homo sapiens, UniProt P42336). As to the kind of experiment: PI3K-alpha fluorescence polarization assay. Format: biochemical. To be noted: read-out: PI3Kα Median IC50.
Where [4] appears, read: read-out: mTOR Kinase Median IC50.

PI3Kα, sequence (P42336 whole entry, species assumed): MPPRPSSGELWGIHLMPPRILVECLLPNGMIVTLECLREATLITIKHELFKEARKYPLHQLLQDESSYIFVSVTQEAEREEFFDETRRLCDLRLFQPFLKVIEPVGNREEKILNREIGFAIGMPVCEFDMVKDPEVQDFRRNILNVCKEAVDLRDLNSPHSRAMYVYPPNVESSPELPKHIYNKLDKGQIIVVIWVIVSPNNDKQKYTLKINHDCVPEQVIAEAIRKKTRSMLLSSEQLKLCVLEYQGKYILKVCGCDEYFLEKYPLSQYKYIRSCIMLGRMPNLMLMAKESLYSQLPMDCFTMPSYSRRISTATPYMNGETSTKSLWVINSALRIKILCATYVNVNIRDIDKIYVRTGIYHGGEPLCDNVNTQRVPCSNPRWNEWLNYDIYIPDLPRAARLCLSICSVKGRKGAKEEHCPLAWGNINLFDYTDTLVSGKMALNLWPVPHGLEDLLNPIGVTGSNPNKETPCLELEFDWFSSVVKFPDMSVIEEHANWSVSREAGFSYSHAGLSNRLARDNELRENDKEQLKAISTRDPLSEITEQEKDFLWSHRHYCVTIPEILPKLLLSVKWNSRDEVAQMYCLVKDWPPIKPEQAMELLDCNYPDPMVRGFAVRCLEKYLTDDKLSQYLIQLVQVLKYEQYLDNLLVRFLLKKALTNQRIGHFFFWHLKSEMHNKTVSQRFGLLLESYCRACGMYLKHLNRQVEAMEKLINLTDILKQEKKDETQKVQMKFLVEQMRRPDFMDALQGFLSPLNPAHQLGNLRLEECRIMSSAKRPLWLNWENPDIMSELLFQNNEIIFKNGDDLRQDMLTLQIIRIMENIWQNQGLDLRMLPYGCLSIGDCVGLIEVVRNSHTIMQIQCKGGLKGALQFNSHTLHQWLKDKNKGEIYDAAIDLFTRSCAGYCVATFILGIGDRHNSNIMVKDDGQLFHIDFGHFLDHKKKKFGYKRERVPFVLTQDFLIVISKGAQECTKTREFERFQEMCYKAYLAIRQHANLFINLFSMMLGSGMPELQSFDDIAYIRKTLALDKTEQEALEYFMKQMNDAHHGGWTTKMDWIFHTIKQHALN
PI3Kα, sequence (P27986 whole entry partner, species assumed): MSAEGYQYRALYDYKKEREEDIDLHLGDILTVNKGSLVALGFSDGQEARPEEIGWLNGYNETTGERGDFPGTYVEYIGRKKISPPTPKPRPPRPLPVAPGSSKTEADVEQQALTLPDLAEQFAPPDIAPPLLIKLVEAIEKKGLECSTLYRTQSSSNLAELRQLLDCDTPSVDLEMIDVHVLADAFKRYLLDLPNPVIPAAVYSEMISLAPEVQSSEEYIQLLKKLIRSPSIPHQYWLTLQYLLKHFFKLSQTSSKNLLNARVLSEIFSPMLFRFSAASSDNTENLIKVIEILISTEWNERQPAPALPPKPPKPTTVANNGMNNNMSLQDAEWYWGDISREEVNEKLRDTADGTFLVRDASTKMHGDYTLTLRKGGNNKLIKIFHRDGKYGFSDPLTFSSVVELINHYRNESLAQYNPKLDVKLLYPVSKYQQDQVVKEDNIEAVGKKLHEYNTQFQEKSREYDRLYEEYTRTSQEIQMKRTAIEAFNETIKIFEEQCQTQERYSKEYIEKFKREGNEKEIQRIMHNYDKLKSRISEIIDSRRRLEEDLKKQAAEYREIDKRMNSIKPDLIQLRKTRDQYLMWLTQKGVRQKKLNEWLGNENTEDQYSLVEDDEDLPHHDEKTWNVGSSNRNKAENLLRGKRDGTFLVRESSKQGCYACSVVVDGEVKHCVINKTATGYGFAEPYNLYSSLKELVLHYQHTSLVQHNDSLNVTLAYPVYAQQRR
PI3Kγ, sequence (P48736 whole entry, species assumed): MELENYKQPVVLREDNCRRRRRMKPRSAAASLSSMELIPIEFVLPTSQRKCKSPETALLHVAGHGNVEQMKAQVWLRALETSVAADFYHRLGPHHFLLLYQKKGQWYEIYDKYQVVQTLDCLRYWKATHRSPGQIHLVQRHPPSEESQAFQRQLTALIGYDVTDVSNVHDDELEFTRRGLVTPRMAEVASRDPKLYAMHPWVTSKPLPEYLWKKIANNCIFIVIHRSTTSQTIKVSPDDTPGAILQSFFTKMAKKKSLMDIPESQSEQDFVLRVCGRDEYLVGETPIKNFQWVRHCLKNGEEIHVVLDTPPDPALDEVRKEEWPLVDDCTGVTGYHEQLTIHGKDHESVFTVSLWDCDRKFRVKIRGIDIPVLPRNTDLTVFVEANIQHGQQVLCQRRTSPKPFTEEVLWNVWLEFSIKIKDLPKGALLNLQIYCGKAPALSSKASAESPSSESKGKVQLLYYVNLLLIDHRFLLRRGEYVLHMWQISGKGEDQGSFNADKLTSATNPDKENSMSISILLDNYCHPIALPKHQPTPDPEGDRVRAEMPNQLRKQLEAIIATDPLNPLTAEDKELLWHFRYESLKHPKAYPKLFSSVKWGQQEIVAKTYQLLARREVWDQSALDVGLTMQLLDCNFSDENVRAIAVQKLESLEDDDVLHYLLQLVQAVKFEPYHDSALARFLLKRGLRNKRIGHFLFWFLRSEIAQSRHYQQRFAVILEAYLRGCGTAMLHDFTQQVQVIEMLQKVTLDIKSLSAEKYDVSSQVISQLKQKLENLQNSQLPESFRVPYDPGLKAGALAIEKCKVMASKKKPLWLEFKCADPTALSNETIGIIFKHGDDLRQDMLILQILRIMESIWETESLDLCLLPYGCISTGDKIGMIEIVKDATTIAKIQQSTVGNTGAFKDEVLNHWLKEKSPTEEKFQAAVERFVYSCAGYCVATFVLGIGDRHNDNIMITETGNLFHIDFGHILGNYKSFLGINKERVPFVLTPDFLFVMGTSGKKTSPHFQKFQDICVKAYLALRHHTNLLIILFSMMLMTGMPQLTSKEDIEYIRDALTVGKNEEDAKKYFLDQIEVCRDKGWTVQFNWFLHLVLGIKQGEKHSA

`Cn1cc(/C=C2\Oc3cccc(O)c3C2=O)c2c(N3CCC(CN)CC3)ccnc21` [Compound 115, (2Z)-2-({4-[4-(aminomethyl)piperidin-1-yl]-1-methyl-1H-pyrrolo[2,3-b]pyridin-3-yl}methylene)-4-hydroxy-1-benzofuran-3(2H)-one] had a melting point of 230 to 238 °C. In data set [1], the IC50 turned out to be 0.208 µM. Besides, the IC50 in data set [2] (setting [4]) worked out at 0.017 µM. Besides, in data set [3], the 50% inhibitory concentration (IC50) amounted to 0.155 µM.
On the same counts, the results for `Cn1cc(/C=C2\Oc3cccc(O)c3C2=O)c2c(N3CC4CC3CO4)ccnc21` (stereo not drawn) [Compound 117, (2Z)-4-hydroxy-2-{[1-methyl-4-(2-oxa-5-azabicyclo[2.2.1]hept-5-yl)-1H-pyrrolo[2,3-b]pyridin-3-yl]methylene}-1-benzofuran-3(2H)-one] are 258 to 263 °C, 0.088 µM, 0.0044 µM and 0.03 µM.
Turning to `CN(C)CCCN1CCN(c2ccnc3c2c(/C=C2\Oc4cccc(O)c4C2=O)cn3C)CC1` [Compound 118, (2Z)-2-[(4-{4-[3-(dimethylamino)propyl]piperazin-1-yl}-1-methyl-1H-pyrrolo[2,3-b]pyridin-3-yl)methylene]-4-hydroxy-1-benzofuran-3(2H)-one], the melting point was 263 to 268 °C. Also, in data set [1], the IC50 was determined as 0.791 µM. In data set [2] (setting [4]), the IC50 was found to be 0.02 µM. In addition, in data set [3], the IC50 turned out to be 0.286 µM.
In the case of `CN(C)C(=O)c1cccc(-c2ccnc3c2c(/C=C2\Oc4cccc(O)c4C2=O)cn3C)c1` [Compound 121, 3-{3-[(Z)-(4-hydroxy-3-oxo-1-benzofuran-2(3H)-ylidene)methyl]-1-methyl-1H-pyrrolo[2,3-b]pyridin-4-yl}-N,N-dimethylbenzamide], the melting point lay in the range of 220 to 223 °C. In addition, the IC50 in data set [1] was found to be 0.425 µM. Moreover, the IC50 in data set [2] (setting [4]) turned out to be 0.018 µM. In addition, in data set [3], the IC50 was 0.369 µM.
`CN(C)Cc1cccc(-c2ccnc3c2c(/C=C2\Oc4cccc(O)c4C2=O)cn3C)c1` [Compound 122, (2Z)-2-[(4-{3-[(dimethylamino)methyl]phenyl}-1-methyl-1H-pyrrolo[2,3-b]pyridin-3-yl)methylene]-4-hydroxy-1-benzofuran-3(2H)-one]: the melting point lay in the range of 308 to 315 °C. For the same molecule, the IC50 in data set [1] was 0.279 µM. In addition, the IC50 in data set [2] (setting [4]) came to 0.018 µM. For the same molecule, the IC50 in data set [3] worked out at 0.06 µM.
The like results for `CN1CCN(C2CCN(c3ccnc4c3c(/C=C3\Oc5cccc(O)c5C3=O)cn4C)CC2)CC1` [Compound 129, (2Z)-4-hydroxy-2-({1-methyl-4-[4-(4-methylpiperazin-1-yl)piperidin-1-yl]-1H-pyrrolo[2,3-b]pyridin-3-yl}methylene)-1-benzofuran-3(2H)-one] were, in that order, 239 to 242 °C, 0.167 µM, 0.014 µM and 0.047 µM.
On the same counts, the results for `CNC(=O)Nc1ccc2c(c1)C(=O)/C(=C/c1cn(C)c3nccc(N4CC5CCC(C4)O5)c13)O2` [Compound 131, 1-methyl-3-[(2Z)-2-{[1-methyl-4-(8-oxa-3-azabicyclo[3.2.1]oct-3-yl)-1H-pyrrolo[2,3-b]pyridin-3-yl]methylene}-3-oxo-2,3-dihydro-1-benzofuran-5-yl]urea] are 247 to 255 °C, 0.557 µM, 0.0095 µM and 0.58 µM.
On the same counts, the results for `CNC(=O)c1ccc(-c2ccnc3c2c(/C=C2\Oc4cccc(O)c4C2=O)cn3C)cc1` [Compound 132, 4-{3-[(Z)-(4-hydroxy-3-oxo-1-benzofuran-2(3H)-ylidene)methyl]-1-methyl-1H-pyrrolo[2,3-b]pyridin-4-yl}-N-methylbenzamide] are 175 °C, 0.083 µM, 0.0017 µM and 0.033 µM.
Regarding `CNC(=O)Nc1ccc(-c2ccnc3c2c(/C=C2\Oc4cccc(O)c4C2=O)cn3C)cc1` [Compound 133, 1-(4-{3-[(Z)-(4-hydroxy-3-oxo-1-benzofuran-2(3H)-ylidene)methyl]-1-methyl-1H-pyrrolo[2,3-b]pyridin-4-yl}phenyl)-3-methylurea], the melting point is 298 to 305 °C (dec.). The IC50 in data set [1] is 0.03 µM. In addition, the IC50 in data set [2] (setting [4]) amounted to 0.0015 µM. In addition, the IC50 in data set [3] amounted to 0.037 µM.
On the same counts, the results for `CC(=O)c1ccc(-c2ccnc3c2c(/C=C2\Oc4cccc(O)c4C2=O)cn3C)cc1` [Compound 134, (2Z)-2-{[4-(4-acetylphenyl)-1-methyl-1H-pyrrolo[2,3-b]pyridin-3-yl]methylene}-4-hydroxy-1-benzofuran-3(2H)-one] are 250 to 253 °C, 0.089 µM, 0.0038 µM and 0.055 µM.
On the same counts, the results for `Cn1cc(/C=C2\Oc3cccc(O)c3C2=O)c2c(N3CCC(N)CC3)ccnc21` [Compound 139, (2Z)-2-{[4-(4-aminopiperidin-1-yl)-1-methyl-1H-pyrrolo[2,3-b]pyridin-3-yl]methylene}-4-hydroxy-1-benzofuran-3(2H)-one] are 260 °C, 1.27 µM, 0.019 µM and 0.119 µM.
The like results for `CN(C)C(=O)Nc1ccc(-c2ccnc3c2c(/C=C2\Oc4cccc(O)c4C2=O)cn3C)cc1` [Compound 140, 3-(4-{3-[(Z)-(4-hydroxy-3-oxo-1-benzofuran-2(3H)-ylidene)methyl]-1-methyl-1H-pyrrolo[2,3-b]pyridin-4-yl}phenyl)-1,1-dimethylurea] were, in that order, 235 to 238 °C, 0.074 µM, 0.002 µM and 0.059 µM.
In turn, `CN(C)C(=O)c1ccccc1-c1ccnc2c1c(/C=C1\Oc3cccc(O)c3C1=O)cn2C` [Compound 141, 2-{3-[(Z)-(4-hydroxy-3-oxo-1-benzofuran-2(3H)-ylidene)methyl]-1-methyl-1H-pyrrolo[2,3-b]pyridin-4-yl}-N,N-dimethylbenzamide] registered a melting point of 293 to 295 °C. The IC50 in data set [1] was 1.86 µM. The IC50 in data set [2] (setting [4]) was found to be 0.18 µM. For the same molecule, the concentration for half-maximal inhibition (IC50) in data set [3] worked out at 5.9 µM.
The like results for `Cn1cc(/C=C2\Oc3cccc(O)c3C2=O)c2c(-c3ccc(C(=O)N4CC5CCC(C4)O5)cc3)ccnc21` [Compound 144, (2Z)-4-hydroxy-2-({1-methyl-4-[4-(8-oxa-3-azabicyclo[3.2.1]oct-3-ylcarbonyl)phenyl]-1H-pyrrolo[2,3-b]pyridin-3-yl}methylidene)-1-benzofuran-3(2H)-one] were, in that order, 296 to 298 °C, 0.077 µM, 0.0006 µM and 0.057 µM.
Take `CN(C)C(=O)C1CCN(c2ccnc3c2c(/C=C2\Oc4cccc(O)c4C2=O)cn3C)CC1` [Compound 145, 1-{3-[(Z)-(4-hydroxy-3-oxo-1-benzofuran-2(3H)-ylidene)methyl]-1-methyl-1H-pyrrolo[2,3-b]pyridin-4-yl}-N,N-dimethylpiperidine-4-carboxamide]: the melting point lay within 185 to 195 °C. Further, in data set [1], the IC50 turned out to be 0.074 µM. Further, the IC50 in data set [2] (setting [4]) is 0.0006 µM. For the same molecule, the IC50 in data set [3] amounted to 0.038 µM.
In the case of `Cn1cc(/C=C2\Oc3cccc(O)c3C2=O)c2c(N3CCC(C(=O)NCCO)CC3)ccnc21` [Compound 148, N-(2-hydroxyethyl)-1-{3-[(Z)-(4-hydroxy-3-oxo-1-benzofuran-2(3H)-ylidene)methyl]-1-methyl-1H-pyrrolo[2,3-b]pyridin-4-yl}piperidine-4-carboxamide], the melting point was 232 to 242 °C. Moreover, in data set [1], the IC50 is 0.094 µM. The IC50 in data set [2] (setting [4]) came to 0.0007 µM. In addition, in data set [3], the IC50 worked out at 0.039 µM.
`Cn1cc(/C=C2\Oc3cccc(O)c3C2=O)c2c(N3CCC(C(=O)N4CCOCC4)CC3)ccnc21` [Compound 150, (2Z)-4-hydroxy-2-({1-methyl-4-[4-(morpholin-4-ylcarbonyl)piperidin-1-yl]-1H-pyrrolo[2,3-b]pyridin-3-yl}methylidene)-1-benzofuran-3(2H)-one] had a melting point of 358 to 361 °C. In data set [1], the IC50 amounted to 0.05 µM. For the same molecule, the IC50 in data set [2] (setting [4]) is 0.0014 µM. Also, the IC50 in data set [3] was 0.063 µM.
The molecule `Cn1cc(/C=C2\Oc3cccc(O)c3C2=O)c2c(N3C4CCC3COC4)ccnc21` [Compound 151, (2Z)-4-hydroxy-2-{[1-methyl-4-(3-oxa-8-azabicyclo[3.2.1]oct-8-yl)-1H-pyrrolo[2,3-b]pyridin-3-yl]methylidene}-1-benzofuran-3(2H)-one] returned a melting point of 284 to 291 °C. In addition, the IC50 in data set [1] is 0.049 µM. Further, in data set [2], 0.0021 µM corresponded to half-maximal inhibition (IC50). In addition, the IC50 in data set [3] came to 0.019 µM.
On to `Cn1cc(/C=C2\Oc3cccc(O)c3C2=O)c2c(N3CCC(C(=O)N4CCCC4)CC3)ccnc21` [Compound 152, (2Z)-4-hydroxy-2-({1-methyl-4-[4-(pyrrolidin-1-ylcarbonyl)piperidin-1-yl]-1H-pyrrolo[2,3-b]pyridin-3-yl}methylidene)-1-benzofuran-3(2H)-one], for which the melting point was 191 to 207 °C. Moreover, in data set [1], the IC50 worked out at 0.032 µM. In data set [2] (setting [4]), the IC50 stood at 0.0006 µM. In data set [3], the IC50 was determined as 0.031 µM.
The like results for `CC(=O)Nc1ccc2c(c1)C(=O)/C(=C/c1cn(C)c3nccc(-c4ccccc4)c13)O2` [Compound 154, N-{(2Z)-2-[(1-methyl-4-phenyl-1H-pyrrolo[2,3-b]pyridin-3-yl)methylidene]-3-oxo-2,3-dihydro-1-benzofuran-5-yl}acetamide] were, in that order, 332 to 335 °C, 1.07 µM, 0.069 µM and 1.39 µM.
The like results for `CC(=O)Nc1ccc2c(c1)C(=O)/C(=C/c1cn(C)c3nccc(N4CC5CCC(C4)O5)c13)O2` [Compound 155, N-[(2Z)-2-{[1-methyl-4-(8-oxa-3-azabicyclo[3.2.1]oct-3-yl)-1H-pyrrolo[2,3-b]pyridin-3-yl]methylidene}-3-oxo-2,3-dihydro-1-benzofuran-5-yl]acetamide] were, in that order, 275 to 285 °C (dec.), 0.306 µM, 0.0145 µM and 0.15 µM.

As usually defined, the melting point is the temperature, or range, at which the solid turns liquid. The term IC50 denotes the concentration needed to halve the response being measured.

The values are drawn from patent US20090298820A1, “3-SUBSTITUTED-1H-PYRROLO[2,3-B]PYRIDINE AND 3-SUBSTITUTED-1H-PYRROLO[3,2-B]PYRIDINE COMPOUNDS, THEIR USE AS MTOR KINASE AND PI3 KINASE INHIBITORS, AND THEIR SYNTHESES” (Wyeth, priority 2008, published 2009).
